Here are results for 11 molecules from ChEMBL document CHEMBL1201862, “PubChem BioAssay data set” (2004).

Molecules are shown by their SMILES.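 96-well plates; 48 h exposure; 5 concentrations. Endpoints by linear interpolation between flanking doses. Not reached: highest tested concentration assigned. GI50 marks 50% less growth.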 Calls of active or inactive are those of the source. Rule as the data show it: active = GI50 up to about 1.1 µM and inactive = higher. Where only a bound is given, the exact number is not on record here.

Some test systems named below: DU-145; SK-MEL-2; OVCAR-3; SK-MEL-5; HCT-15; SW-620; OVCAR-4; NCI-H460; 786-0; Malme-3M; MDA-MB-435; ACHN; HL-60; UO-31; NCI-H522; UACC-62; HOP-92; HT-29; SNB-75; SN12C.
Holding throughout (experiment): DTP human tumour cell line panel, 48 h

Regarding `CCOC(=O)N1CCC2(CC1)C[C@](Sc1ccccc1)(C(C)=O)[C@H](C)O2`, the GI50 in the test on DU-145 is > 100 µM (inactive); in the test on SK-MEL-2, > 100 µM (inactive); in the test on OVCAR-3, > 100 µM (inactive); in the test on SK-MEL-5, > 100 µM (inactive); in the test with HCT-15, more than 100 µM; with SW-620, > 100 µM (inactive). The GI50 with OVCAR-4, in the test on NCI-H460, in the test with 786-0, with Malme-3M, with MDA-MB-435 and in the test with ACHN was > 100 µM (inactive) each time. Further, the GI50 in the test on HL-60, in the test on UO-31, with NCI-H522, in the test on UACC-62, with HOP-92 and with HT-29 was > 100 µM (inactive) each time. The GI50 with SNB-75 is > 100 µM (inactive).
For the molecule `N#C[C@](CO)(NC(=O)OCc1ccccc1)C(F)F`, the GI50 was > 100 µM (inactive) in the test on DU-145; > 100 µM (inactive) in the test with SK-MEL-2; > 100 µM (inactive) in the test with OVCAR-3; > 100 µM (inactive) in the test with SK-MEL-5; more than 100 µM in the test with HCT-15; > 100 µM (inactive) with SW-620. Besides, the GI50 with OVCAR-4, in the test with NCI-H460, in the test with 786-0, in the test with Malme-3M, with MDA-MB-435 and with ACHN was > 100 µM (inactive) each time. In addition, the GI50 in the test with HL-60, with UO-31, in the test on NCI-H522, with UACC-62, in the test on HOP-92 and in the test with HT-29 was > 100 µM (inactive) in each case. The GI50 with SNB-75 is > 100 µM (inactive).
For the molecule `COc1ccc(/C=C2\OC(=O)C(Cl)=C2c2ccc(OC)c(Cl)c2)cc1`, the GI50 in the test on DU-145 is 36.3 µM (inactive); in the test on SK-MEL-2, 49.8 µM (inactive); with OVCAR-3, 20 µM (inactive); with SK-MEL-5 it was 17.3 µM (inactive); in the test with HCT-15, 45 µM; in the test on SW-620 it was 36.6 µM (inactive). The GI50 in the test with OVCAR-4 is 20.3 µM (inactive); in the test with NCI-H460, 22.6 µM (inactive); with 786-0, 15.4 µM (inactive); in the test with Malme-3M, 25.3 µM (inactive); in the test with MDA-MB-435, 23.8 µM (inactive); in the test on ACHN, 30.4 µM (inactive). For the same molecule, the GI50 in the test with HL-60 is 47.1 µM (inactive); in the test on UO-31, 22 µM (inactive); with NCI-H522, 25.3 µM (inactive); with UACC-62 it was 26.5 µM (inactive); with HOP-92 it was 17.9 µM (inactive); with HT-29 it was 43.2 µM (inactive). For the same molecule, the GI50 in the test on SNB-75 was 19.7 µM (inactive).
For `COc1cccc2c1[C@H](OC)[C@]13O[C@@]1(C2=O)[C@H](O)[C@H](C)[C@@](O)(C(=O)[C@@H]1O[C@H]1C)[C@@H]3O`, the GI50 in the test on DU-145 was 0.282 µM (active); in the test on SK-MEL-2, 0.175 µM (active); in the test on OVCAR-3, 0.276 µM (active); with SK-MEL-5, 0.172 µM (active); with HCT-15, 0.255 µM; in the test with SW-620, 0.21 µM (active). Also, the GI50 with OVCAR-4 is 0.208 µM (active); in the test with 786-0 it was 0.264 µM (active); with Malme-3M it was 0.169 µM (active); with MDA-MB-435, 0.214 µM (active); in the test with ACHN, 0.211 µM (active); in the test with HL-60 it was 0.31 µM (active). Besides, the 50% growth inhibitory concentration (GI50) was 0.185 µM (active) in the test with NCI-H522, 0.298 µM (active) in the test on UACC-62 and 0.194 µM (active) in the test on HOP-92.
As to `Nc1nc(N)c2cc(-c3ccccc3)cnc2n1`, the GI50 is > 10 µM (inactive) in the test with DU-145; 33 µM (inactive) in the test on SK-MEL-2; 18.2 µM (inactive) in the test with OVCAR-3; 10 µM (inactive) in the test with SK-MEL-5; 27.4 µM in the test on HCT-15; 9.84 µM (inactive) in the test with SW-620. Further, the GI50 was 13.9 µM (inactive) in the test with OVCAR-4; 10.8 µM (inactive) in the test with NCI-H460; 9.89 µM (inactive) in the test on 786-0; 8.99 µM (inactive) in the test on Malme-3M; > 10 µM (inactive) with MDA-MB-435; 12.9 µM (inactive) in the test with ACHN. Besides, the GI50 was 13.3 µM (inactive) in the test on HL-60; 13 µM (inactive) in the test with UO-31; 21.6 µM (inactive) with NCI-H522; 12.2 µM (inactive) in the test on HOP-92; 8.55 µM (inactive) in the test on HT-29; 3.61 µM (inactive) in the test on SNB-75. Also, the GI50 in the test with SN12C was 12.2 µM (inactive).
Take `Cc1ccc(S(=O)(=O)OI(O)CC(F)(F)F)cc1`: the GI50 in the test on DU-145 was > 100 µM (inactive); in the test with SK-MEL-2, > 100 µM (inactive); in the test with OVCAR-3, > 100 µM (inactive); in the test on SK-MEL-5 it was > 100 µM (inactive); with HCT-15, more than 100 µM; in the test on SW-620, > 100 µM (inactive). In addition, the GI50 in the test on OVCAR-4, in the test with NCI-H460, with 786-0, with MDA-MB-435, with ACHN and with HL-60 was > 100 µM (inactive) each time. Besides, the GI50 with UO-31 was > 100 µM (inactive); with NCI-H522 it was 91.8 µM (inactive); with UACC-62, > 100 µM (inactive); in the test with HOP-92, > 100 µM (inactive); in the test on HT-29, > 100 µM (inactive); in the test with SNB-75, > 100 µM (inactive). In addition, in the test with SN12C, the GI50 is > 100 µM (inactive).
Consider `COc1ccc(C[N+]23C(CC[C@H]2c2ccccc2)CC[C@H]3c2ccccc2)cc1` (stereo partly drawn), for which the GI50 is 23.8 µM (inactive) in the test on DU-145; 18.5 µM (inactive) in the test with SK-MEL-2; 6.04 µM (inactive) in the test with OVCAR-3; 4.43 µM (inactive) with SK-MEL-5; 28.2 µM (inactive) in the test on SW-620; 13.1 µM (inactive) in the test on OVCAR-4. Further, the GI50 in the test on 786-0 is 39.4 µM (inactive); in the test on Malme-3M, 11.4 µM (inactive); in the test on MDA-MB-435 it was 9.84 µM (inactive); in the test with ACHN, 67.6 µM (inactive); in the test on HL-60 it was 4.06 µM (inactive); in the test with UO-31, 31.9 µM (inactive). Also, the GI50 was 8.73 µM (inactive) with NCI-H522; 9.66 µM (inactive) in the test on HOP-92; 12.2 µM (inactive) in the test on HT-29; 18.3 µM (inactive) in the test on SNB-75; 36.9 µM (inactive) in the test on SN12C.
For `O=C(O)Cc1cccc2c(=O)c3ccccc3oc12`, the GI50 is > 100 µM (inactive) in the test on DU-145; 27.3 µM (inactive) in the test on SK-MEL-2; > 100 µM (inactive) in the test with OVCAR-3; > 100 µM (inactive) in the test with SK-MEL-5; 21.1 µM in the test with HCT-15; > 100 µM (inactive) in the test on SW-620. In addition, the GI50 in the test with OVCAR-4, in the test with NCI-H460, in the test with 786-0, in the test on Malme-3M, in the test with MDA-MB-435 and in the test with ACHN was > 100 µM (inactive) throughout. Also, the GI50 in the test on HL-60 was > 100 µM (inactive); in the test on UO-31, > 100 µM (inactive); in the test with NCI-H522, 48.5 µM (inactive); in the test with UACC-62, 24.3 µM (inactive); in the test on HOP-92 it was > 100 µM (inactive); in the test on HT-29 it was > 100 µM (inactive). Moreover, the GI50 in the test on SN12C was > 100 µM (inactive).
For `Nn1c(S)nnc1CCCCCCCCc1nnc(S)n1N`, the GI50 in the test with DU-145 was > 100 µM (inactive); in the test on SK-MEL-2 it was > 100 µM (inactive); with OVCAR-3 it was > 100 µM (inactive); in the test with HCT-15, more than 100 µM; in the test with SW-620, > 100 µM (inactive); in the test with OVCAR-4, > 100 µM (inactive). The GI50 in the test on NCI-H460, in the test with 786-0, in the test with Malme-3M, in the test with MDA-MB-435, in the test with ACHN and in the test on HL-60 was > 100 µM (inactive) throughout. The GI50 in the test on UO-31, in the test on NCI-H522, with UACC-62, in the test on HOP-92, in the test on HT-29 and with SNB-75 was > 100 µM (inactive) throughout. The GI50 in the test with SN12C is > 100 µM (inactive).
On to `O=C(O)CCNCC(=O)O`, for which the GI50 is > 100 µM (inactive) in the test on DU-145; > 100 µM (inactive) with SK-MEL-2; > 100 µM (inactive) in the test on OVCAR-3; > 100 µM (inactive) with SK-MEL-5; more than 100 µM with HCT-15; > 100 µM (inactive) in the test with SW-620. Besides, the GI50 in the test with NCI-H460, in the test with 786-0, with Malme-3M, in the test with MDA-MB-435, in the test with ACHN and with HL-60 was > 100 µM (inactive) throughout. The GI50 in the test on UO-31, in the test on NCI-H522, with UACC-62, in the test with HOP-92, in the test with HT-29 and in the test on SNB-75 was > 100 µM (inactive) throughout. In addition, the GI50 with SN12C was > 100 µM (inactive).
As to `Cn1cc(NC(=O)Nc2cc(C(=O)Nc3cc(C(=O)Nc4cc(S(=O)(=O)O)c5cc(S(=O)(=O)O)cc(S(=O)(=O)O)c5c4)n(C)c3)n(C)c2)cc1C(=O)Nc1cc(C(=O)Nc2cc(S(=O)(=O)O)c3cc(S(=O)(=O)O)cc(S(=O)(=O)O)c3c2)n(C)c1`, the GI50 with DU-145 was > 100 µM (inactive); in the test with OVCAR-3, > 100 µM (inactive); in the test on SK-MEL-5, > 100 µM (inactive); with HCT-15, more than 100 µM; in the test on SW-620, > 100 µM (inactive); in the test on OVCAR-4 it was > 100 µM (inactive). For the same molecule, the GI50 in the test with NCI-H460, in the test on 786-0, in the test with Malme-3M, in the test on MDA-MB-435, in the test with ACHN and with HL-60 was > 100 µM (inactive) in each case. The GI50 with UO-31 is 78.5 µM (inactive); in the test on NCI-H522, > 100 µM (inactive); with UACC-62, > 100 µM (inactive); in the test with HOP-92, 62.7 µM (inactive); in the test on HT-29 it was > 100 µM (inactive); in the test with SNB-75 it was 50.1 µM (inactive). Further, in the test with SN12C, the GI50 is > 100 µM (inactive).
